# In patent EP3556748A1, “HYDROXYPHENYL-TRIAZINE UV ABSORBERS” (BASF SE, priority 2018, dated 2019):
# Assay: Solubility testing in cosmetic solvents / emollients (clear solution)
# Assay type: physicochemical
# Details: 25°C
# Procedure: The UV absorber mixture is suspended in 1200mg solvent in a glass container (sonication bath, vortex shaker). A magnetic stirring bar is added. The container is closed and stirred over night at room temperature (20-35°C).
# Specification: clear solution
# The solubility of Tinosorb S was determined as described in SOFW-Journal, 139, 7-2013, page 7-14.
smiles,measurement,setting,value
"CCCCC(CC)COc1ccc(-c2nc(-c3ccc(OC)cc3)nc(-c3ccc(OCC(CC)CCCC)cc3O)n2)c(O)c1 (centres unmarked) [Tinosorb S, Bis-Ethylhexyloxyphenol Methoxyphenyl Triazine]",Solubility,Cetiol AB (C12-15 Alkyl Benzoate),10% w/w
same,Solubility,Cetiol B (Dibutyl Adipate),12% w/w
same,Solubility,Cetiol CC (Dicaprylyl Carbonate),9% w/w
same,Solubility,Cetiol Ultimate (Undecane and Tridecane),1% w/w
same,Solubility,Dub DBS (Dibutyl Sebacate),9% w/w
same,Solubility,Finsolv EB: Ethylhexyl Benzoate,17% w/w
same,Solubility,Myritol 318 (Caprylic/Capric Triglyceride),5% w/w
same,Solubility,Myritol 331 (Cocoglycerides),5% w/w
